{
  "source": "the supplement of paper PMC10307832",
  "assay_in_all_cases": "relative viability (nuclei count vs DMSO), 5 days (fraction); higher = more cells survive",
  "key": {"[1]": {"compound": "COc1cc2nccc(Oc3ccc(NC(=O)C4(C(=O)Nc5ccc(F)cc5)CC4)cc3)c2cc1OC [Cabozantinib] + C[C@]1(O)C[C@@H](c2nc(-c3ccc4ccc(-c5ccccc5)nc4c3)c3c(N)nccn32)C1 [Linsitinib] (partner 1 µM)", "method_in_brief": "(§1)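 Medians of duplicate plates are given as relative viability. That measure is the nuclei count in treated wells divided by the count in vehicle wells. Counts were taken on 4× images of lung cancer cell lines in 1536-well plates, 5 days after pin-tool dosing the day after seeding with one drug alone or a fixed anchor-drug dose plus five library-drug doses (not always all listed) in √10 steps.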"}, "Zosuquidar + Trametinib": {"compound": "O[C@@H](COc1cccc2ncccc12)CN1CCN([C@@H]2c3ccccc3[C@@H]3[C@H](c4ccccc42)C3(F)F)CC1 [Zosuquidar] + CC(=O)Nc1cccc(-n2c(=O)n(C3CC3)c(=O)c3c(Nc4ccc(I)cc4F)n(C)c(=O)c(C)c32)c1 [Trametinib] (partner 0.02 µM)", "method_in_brief": "as §1"}, "Zosuquidar + Bortezomib": {"compound": "O[C@@H](COc1cccc2ncccc12)CN1CCN([C@@H]2c3ccccc3[C@@H]3[C@H](c4ccccc42)C3(F)F)CC1 [Zosuquidar] + CC(C)C[C@H](NC(=O)[C@H](Cc1ccccc1)NC(=O)c1cnccn1)B(O)O [Bortezomib] (partner 0.002 µM)", "method_in_brief": "as §1"}, "Zosuquidar + Lapatinib": {"compound": "O[C@@H](COc1cccc2ncccc12)CN1CCN([C@@H]2c3ccccc3[C@@H]3[C@H](c4ccccc42)C3(F)F)CC1 [Zosuquidar] + CS(=O)(=O)CCNCc1ccc(-c2ccc3ncnc(Nc4ccc(OCc5cccc(F)c5)c(Cl)c4)c3c2)o1 [Lapatinib] (partner 2 µM)", "method_in_brief": "as §1"}},
  "data": [
    {"cell line": "UMC-11", "values": [
      {"measurement": "relative viability", "setting": "[1]; first compound 0.02 µM", "value": 1.12},
      {"measurement": "relative viability", "setting": "[1]; first compound 0.06325 µM", "value": 1.04},
      {"measurement": "relative viability", "setting": "[1]; first compound 0.2 µM", "value": 1.03},
      {"measurement": "relative viability", "setting": "[1]; first compound 0.6325 µM", "value": 0.98},
      {"measurement": "relative viability", "setting": "[1]; first compound 2 µM", "value": 1.05},
      {"measurement": "relative viability", "setting": "Zosuquidar + Trametinib; first compound 0.01 µM", "value": 0.668},
      {"measurement": "relative viability", "setting": "Zosuquidar + Trametinib; first compound 0.03162 µM", "value": 0.758},
      {"measurement": "relative viability", "setting": "Zosuquidar + Trametinib; first compound 0.1 µM", "value": 0.623},
      {"measurement": "relative viability", "setting": "Zosuquidar + Trametinib; first compound 0.3162 µM", "value": 0.833},
      {"measurement": "relative viability", "setting": "Zosuquidar + Trametinib; first compound 1 µM", "value": 0.606},
      {"measurement": "relative viability", "setting": "Zosuquidar + Bortezomib; first compound 0.01 µM", "value": 0.654},
      {"measurement": "relative viability", "setting": "Zosuquidar + Bortezomib; first compound 0.03162 µM", "value": 0.715},
      {"measurement": "relative viability", "setting": "Zosuquidar + Bortezomib; first compound 0.1 µM", "value": 0.676},
      {"measurement": "relative viability", "setting": "Zosuquidar + Bortezomib; first compound 0.3162 µM", "value": 1.06},
      {"measurement": "relative viability", "setting": "Zosuquidar + Bortezomib; first compound 1 µM", "value": 0.625},
      {"measurement": "relative viability", "setting": "Zosuquidar + Lapatinib; first compound 0.01 µM", "value": 0.895},
      {"measurement": "relative viability", "setting": "Zosuquidar + Lapatinib; first compound 0.03162 µM", "value": 1.07},
      {"measurement": "relative viability", "setting": "Zosuquidar + Lapatinib; first compound 0.1 µM", "value": 0.89},
      {"measurement": "relative viability", "setting": "Zosuquidar + Lapatinib; first compound 0.3162 µM", "value": 1.14},
      {"measurement": "relative viability", "setting": "Zosuquidar + Lapatinib; first compound 1 µM", "value": 0.96}
    ]}
  ]
}
